Laboratory results taken from patent US20180015100A1, “COMBINATION PRODUCTS FOR THE TREATMENT OF BACTERIAL INFECTIONS AND METHODS OF PRODUCING OR DOSING OF SAME” (priority 2016, published 2018).
Converted amounts (≈) assume the structure as drawn. Where two headings read alike, the source gives them in different places.

System: 385 Escherichia coli and 126 Klebsiella pneumoniae isolates
Assay: MIC, MIC50 and MIC90 by reference broth microdilution against 511 UTI/bloodstream isolates (USA and Europe 2014-2015)
Format: cell-based
[1] = 365 isolates producing CTX-M enzymes

In the case of `Nc1nc(/C(=C/CC(=O)O)C(=O)N[C@@H]2C(=O)N3C(C(=O)O)=CCS[C@H]23)cs1` [Ceftibuten, ceftibuten], the “% of the isolates inhibited at ≦1 μg/mL” value [1] is reported as 19.7%, the “% of the isolates inhibited at ≦8 μg/mL” value [1] is reported as 64.4% and the MIC50 (365 isolates producing CTX-M enzymes (no transferrable AmpC/carbapenemase)) is reported as 8 µg/mL (≈ 19.5 µM). For the same compound, the MIC90 (365 isolates producing CTX-M enzymes (no transferrable AmpC/carbapenemase), read-out: MIC90) was 32 µg/mL (≈ 78 µM), the MIC90 (379 E. coli or K. pneumoniae isolates genotyped for CTX-M, TEM, or SHV ESBLs, 2:1 ratio) was roughly 32 µg/mL and the MIC50 (511 isolates) was 8 µg/mL (≈ 19.5 µM). The MIC90 (511 isolates) was greater than 32 µg/mL, the MIC90 (511 isolates, read-out: MIC90) was greater than 32 µg/mL and the MIC50 (All CTX-M-producing K pneumoniae (71)) was 8 µg/mL (≈ 19.5 µM). For the same compound, the MIC90 (All CTX-M-producing K pneumoniae (71), read-out: MIC90) was greater than 32 µg/mL, the MIC50 (All CTX-M-producing isolates (365)) was 8 µg/mL (≈ 19.5 µM) and the MIC90 (All CTX-M-producing isolates (365), read-out: MIC90) was 32 µg/mL (≈ 78 µM). For the same compound, the MIC50 (Enterobacteriaceae (511)) was 8 µg/mL (≈ 19.5 µM), the MIC90 (Enterobacteriaceae (511), read-out: MIC90) was greater than 32 µg/mL and the MIC50 (Escherichia coli, All CTX-M-producing E. coli (294)) was 8 µg/mL (≈ 19.5 µM). For the same compound, the MIC90 (Escherichia coli, All CTX-M-producing E. coli (294), read-out: MIC90) was 32 µg/mL (≈ 78 µM), the MIC50 (Escherichia coli, E. coli (385)) was 8 µg/mL (≈ 19.5 µM) and the MIC90 (Escherichia coli, E. coli (385), read-out: MIC90) was greater than 32 µg/mL. The MIC50 (Isolates producing CTX-M Group 1 (276)) was 8 µg/mL (≈ 19.5 µM), the MIC90 (Isolates producing CTX-M Group 1 (276), read-out: MIC90) was greater than 32 µg/mL and the MIC50 (Isolates producing CTX-M Group 9 (92)) was 1 µg/mL (≈ 2.44 µM). For the same compound, the MIC90 (Isolates producing CTX-M Group 9 (92), read-out: MIC90) was 16 µg/mL (≈ 39 µM), the MIC50 (Isolates producing SHV ESBL (18)) was 1 µg/mL (≈ 2.44 µM) and the MIC90 (Isolates producing SHV ESBL (18), read-out: MIC90) was 16 µg/mL (≈ 39 µM). The MIC50 (Isolates producing transferable AmpC (57)) was greater than 32 µg/mL, the MIC90 (Isolates producing transferable AmpC (57), read-out: MIC90) was greater than 32 µg/mL and the MIC50 (K pneumoniae (126)) was 8 µg/mL (≈ 19.5 µM). The MIC90 (K pneumoniae (126), read-out: MIC90) was greater than 32 µg/mL, the MIC50 (KPC-producers (25)) was 8 µg/mL (≈ 19.5 µM) and the MIC90 (KPC-producers (25), read-out: MIC90) was 32 µg/mL (≈ 78 µM). For the same compound, the “cumulative % of isolates at MIC” value (MIC 0.015 μg/mL, All CTX-M-producing K pneumoniae (71)) was “(0.0) %”, the “cumulative % of isolates at MIC” value (MIC 0.015 μg/mL, All CTX-M-producing isolates (365)) was “(0.0) %” and the “cumulative % of isolates at MIC” value (MIC 0.015 μg/mL, Isolates producing CTX-M Group 9 (92)) was “(0.0) %”. The “cumulative % of isolates at MIC” value (MIC 0.015 μg/mL, Isolates producing SHV ESBL (18)) was “(0.0) %”, the “cumulative % of isolates at MIC” value (MIC 0.015 μg/mL, K pneumoniae (126)) was “(0.0) %” and the “cumulative % of isolates at MIC” value (MIC 0.03 μg/mL, All CTX-M-producing K pneumoniae (71)) was “(1.4) %”. For the same compound, the “cumulative % of isolates at MIC” value (MIC 0.03 μg/mL, All CTX-M-producing isolates (365)) was “(0.3) %”, the “cumulative % of isolates at MIC” value (MIC 0.03 μg/mL, E. coli (385)) was “(0.0) %” and the “cumulative % of isolates at MIC” value (MIC 0.03 μg/mL, Isolates producing CTX-M Group 9 (92)) was “(1.1) %”. The “cumulative % of isolates at MIC” value (MIC 0.03 μg/mL, Isolates producing SHV ESBL (18)) was “(11.1) %”, the “cumulative % of isolates at MIC” value (MIC 0.03 μg/mL, K pneumoniae (126)) was “(4.0) %” and the “cumulative % of isolates at MIC” value (MIC 0.06 μg/mL, All CTX-M-producing E. coli (294)) was “(0.0) %”. For the same compound, the “cumulative % of isolates at MIC” value (MIC 0.06 μg/mL, All CTX-M-producing K pneumoniae (71)) was “(2.8) %”, the “cumulative % of isolates at MIC” value (MIC 0.06 μg/mL, All CTX-M-producing isolates (365)) was “(0.5) %” and the “cumulative % of isolates at MIC” value (MIC 0.06 μg/mL, E. coli (385)) was “(0.3) %”. For the same compound, the “cumulative % of isolates at MIC” value (MIC 0.06 μg/mL, Isolates producing CTX-M Group 9 (92)) was “(2.2) %”, the “cumulative % of isolates at MIC” value (MIC 0.06 μg/mL, Isolates producing SHV ESBL (18)) was “(16.7) %” and the “cumulative % of isolates at MIC” value (MIC 0.06 μg/mL, K pneumoniae (126)) was “(6.3) %”. For the same compound, the “cumulative % of isolates at MIC” value (MIC 0.5 μg/mL, All CTX-M-producing E. coli (294)) was “(10.5) %”, the “cumulative % of isolates at MIC” value (MIC 0.5 μg/mL, All CTX-M-producing K pneumoniae (71)) was “(7.0) %” and the “cumulative % of isolates at MIC” value (MIC 0.5 μg/mL, All CTX-M-producing isolates (365)) was “(9.9) %”. The “cumulative % of isolates at MIC” value (MIC 0.5 μg/mL, E. coli (385)) was “(10.4) %”, the “cumulative % of isolates at MIC” value (MIC 0.5 μg/mL, Enterobacteriaceae (511)) was “(10.8) %” and the “cumulative % of isolates at MIC” value (MIC 0.5 μg/mL, Isolates producing CTX-M Group 1 (276)) was “(3.6) %”. For the same compound, the “cumulative % of isolates at MIC” value (MIC 0.5 μg/mL, Isolates producing CTX-M Group 9 (92)) was “(28.3) %”, the “cumulative % of isolates at MIC” value (MIC 0.5 μg/mL, Isolates producing SHV ESBL (18)) was “(38.9) %” and the “cumulative % of isolates at MIC” value (MIC 0.5 μg/mL, K pneumoniae (126)) was “(11.9) %”. For the same compound, the “cumulative % of isolates at MIC” value (MIC 1 μg/mL, All CTX-M-producing E. coli (294)) was “(22.1) %”, the “cumulative % of isolates at MIC” value (MIC 1 μg/mL, All CTX-M-producing K pneumoniae (71)) was “(9.9) %” and the “cumulative % of isolates at MIC” value (MIC 1 μg/mL, All CTX-M-producing isolates (365)) was “(19.7) %”. For the same compound, the “cumulative % of isolates at MIC” value (MIC 1 μg/mL, E. coli (385)) was “(19.7) %”, the “cumulative % of isolates at MIC” value (MIC 1 μg/mL, Isolates producing CTX-M Group 1 (276)) was “(9.1) %” and the “cumulative % of isolates at MIC” value (MIC 1 μg/mL, Isolates producing CTX-M Group 9 (92)) was “(50.0) %”.
